Experimental data taken from a melting point compilation (Tetko et al.; mined from patent text by program, amines drawn as free bases though some values may be those of a salt).

Structure (SMILES) | melting point
COc1ccc(C(NC(C)=O)C(=O)c2ccc(Cl)cc2)cc1 (centres undefined) | 140 °C
CC(=O)N1CCN(c2c(-c3ccccc3)sc3ccccc23)CC1 | 167 to 169 °C
CCc1noc(C)c1C(=O)Nc1cccc(F)c1 | 99.5 to 101 °C
COc1ccccc1N1CCN(CCCn2c(=O)[nH]c3ccsc3c2=O)CC1 | 78 to 84 °C
Cc1nn(-c2cc(OS(C)(=O)=O)c(Cl)cc2F)c(C)c1[N+](=O)[O-] | 150 to 152 °C
NS(=O)(=O)c1ccc(-c2noc(-c3cnn4c(C5CC5)cc(-c5ccc(Cl)cc5)nc34)n2)cc1 | 260 °C
CCCCn1cc(C=C2SC(=S)N(CC(=O)O)C2=O)c2ccccc21 | 280 to 285 °C
S=C=Nc1cc(Cl)ccc1N1CCOCC1 | 86 to 87 °C
CC1(C)OC(=O)Nc2ccc(-c3ccc(C#N)c(F)c3)cc21 | 272 to 275 °C
Cc1oc(-c2ccccc2)nc1COc1ccc(Cn2cc(C=O)c(-c3cccs3)n2)cc1 | 136 to 137 °C
CC(C)(C)c1cc(/C=C(\C#N)C(=O)NCCCc2ccccc2)cc(C(C)(C)C)c1O | 209 °C
CCS(=O)(=O)CCC(=O)NNC(=O)N1Cc2ccccc2Oc2ccc(F)cc21 | 191 to 193 °C
O=c1ccc(-c2ccc(O)cc2)cn1Cc1ccc(Cl)cc1F | 207 °C
CC(=O)NCCC1CCNCC1 | 60 °C
O=C(NC(=O)C(c1ccccc1)c1ccccc1)OCCCc1ccncc1 | 147 to 150 °C
CCOC12CC(C)(C)C(O1)C(OC(=O)c1ccc(N)cc1)C=C2C (centres undefined) | 130 to 132 °C
CCc1ccc2nc(C)[nH]c2c1N1CC(CI)OC1=O (centres undefined) | 143 to 144 °C
CCOC(=O)C(=CNc1cccnc1OC)C(=O)OCC | 65 °C
CCCCCCCCCOc1ccc(-c2ccc(OCC(C)CC)nn2)cc1 (centres undefined) | 87 °C
NNC1=NCCCCN1 | 133 to 135 °C
CCOC(=O)c1ccc(C(=O)CN2CCN(c3ccncc3)CC2)cc1 | 147 to 149 °C
COC(=O)Oc1ccc(CNC=C2C(=O)NC(=O)c3ccc(Br)cc32)cc1OC(=O)OC | 239 to 240 °C
COC(C)c1nsc2ccc(-n3c(=O)cc(C(F)(F)F)n(C)c3=O)cc12 (centres undefined) | 133 to 135 °C
CSC(=S)NCc1cc(=O)c(OC(c2ccccc2)c2ccccc2)cn1OC(c1ccccc1)c1ccccc1 | 176 to 178 °C
N#Cc1cc(O)ccc1Br | 183 to 184 °C

Structure (SMILES) | melting point
CNC(=S)N1CC(c2ccccc2)C(c2ccc(Cl)cc2)=N1 (centres undefined) | 181 to 183 °C
Cc1ccc(S(=O)(=O)NC2CCCCNC2=O)cc1 (centres undefined) | 180 °C
OC[C@H]1CCCC[C@H]1Nc1nccc(-n2nnc3ccccc32)n1 | 206 to 208 °C
O=[N+]([O-])c1ccccc1C1=NCC(=S)Nc2sc(Cl)cc21 | 213 to 215 °C
CC(=O)NC(C)Cc1ccc(OC(C)=O)cc1 (centres undefined) | 97.5 to 99 °C
CCOC(=O)C(O)=CC(=O)c1c[nH]c2ccccc12 | > 300 °C
CC1(O)CN(C(=O)c2cc(C(C)(C)C)c(O)c(C(C)(C)C)c2)C1 | 148 to 153 °C
CSc1ccc(CCCOCCCCCCNCC(O)c2ccc3c(n2)COC(c2ccccc2)O3)cc1 (centres undefined) | 70 °C
CC#CCOc1ccc(S(=O)(=O)C2(C(=O)O)CCN(C(CC)CC)CC2)cc1 | 98 °C
O=C(Nc1ccc(S(=O)(=O)C(F)(F)F)cc1)Nn1cnc2ccccc2c1=O | 118 to 121 °C
CCCc1cc(O)nc(-c2cccc(Oc3ccccc3Cl)n2)n1 | 95.1 °C
CC(C)n1cc(-c2nc(C(N)=O)c(N)nc2-c2cc(F)cc(F)c2)ccc1=O | 249 °C
CSc1ncc2cc(CBr)c(=O)n(C3CCCC3)c2n1 | 103 to 105 °C
CC1CCC(N(CC2CCC(CN(C(=O)Nc3ccc(N4CCCCC4)cc3)C3CCC(C)CC3)CC2)C(=O)Nc2ccc(N3CCCCC3)cc2)CC1 (centres undefined) | 161 to 165 °C
CCn1c(C)nc2cc(C(N)=O)ccc21 | 251 °C
CN1C(=O)c2cc(Cl)ccc2N(C(=O)CCN2CCCC2)c2ccccc21 | 118 to 120 °C
CC(=O)N(C#N)C1(c2ccc(OCc3ccc4ccccc4n3)cc2)CCCC1 | 90 °C
O=[N+]([O-])c1cccc(C2C3=C(CCCS3)NC3=C2SCCC3)c1 | > 260 °C
COC(=O)[C@H](Cc1ccccc1)NC(=O)[C@H](Cc1ccccc1)NC(=O)[C@H](CC(N)=O)NC(=O)OC(C)(C)C | 192 to 194 °C
Oc1ccc2oc(-c3ccc(O)c(F)c3)cc2c1 | 218 to 222 °C
CN1c2ccc(CC(=O)O)cc2CCC1c1ccccc1 (centres undefined) | 110 to 111 °C
CCCOC(=O)C(C)Oc1ccc(Oc2cnc3cc(Cl)ccc3n2)cc1F (centres undefined) | 70 to 72 °C
CCCCCN(CCCCC)C(=O)C(CCC(=O)OC)CS(=O)(=O)c1ccc(Cl)c(Cl)c1 (centres undefined) | 52 to 54 °C
O=c1c(-c2ccccc2)cc(C2=NCCO2)c2n1CCc1ccsc1-2 | 211 to 212 °C
O=c1oc2ccccc2cc1CCN1CCC(Nc2nc3ccccc3n2Cc2cccs2)CC1 | 165 °C

Structure (SMILES) | melting point
CC(=O)OCC(=O)Nc1ccc(-c2nc(C(=O)Nc3nccs3)c(-c3ccc(C)cc3)[nH]2)cc1 | > 250 °C
O=C(Nc1cc2ncc(CN3CCCC3)cc2cc1Cl)c1ccc(-c2ccc(F)cc2)cc1 | 188 °C
Nc1nc2c(s1)CCN(CC=Cc1cccc(OCc3ccccn3)c1)CC2 | 35 to 40 °C
CC(=O)NC[C@H]1CN(c2ccc(C(=O)c3cnc4ccc(C#N)cn34)cc2)C(=O)O1 | 224 to 226 °C
Cc1nnc2n1-c1ccc(Cl)cc1C(c1ccccc1Cl)=NN2Cc1ccncc1 | 195 to 196 °C
C=CCNc1ccc([N+](=O)[O-])cc1C(=O)c1ccccc1 | 97 °C
COc1cc(CCNC(=O)c2ccccc2)cc2c1OC(C)(C)C2 | 137 to 138 °C
C=CCN1CCCNC1=C[N+](=O)[O-] | 125 to 126 °C
CC(C)(C)OC(=O)NC(C)(C)c1ccc(-c2nc(Nc3ccc(-n4ccnc4)cc3)ncc2Cl)cc1 | 218 to 220 °C
CCCOC(=O)Nc1nc2ccccc2c2c1nc(COCC)n2CC(C)(C)NS(C)(=O)=O | 125 to 127 °C
CCOC(=O)c1ccccc1NC(=O)C(F)(F)F | 78 °C
O=C(Nc1cccc(OC2OC(CO)C(O)C2O)c1)C(F)(F)F (centres undefined) | 133 to 135 °C
c1ccc2c(c1)CNc1c-2ccc2ccccc12 | 186 to 188 °C
Cn1ncc(C(=O)N2CCOCC2)c1C(=O)Nc1cc2nc(-c3ccccc3)nn2cc1F | 224 to 225 °C
CCOCc1nc2c(N)nc3ccccc3c2n1CC1CCN(C)O1 (centres undefined) | 173 to 174 °C
COc1ccc(-c2nn(CC(C)C)c(=O)c(CO)c2-c2ccc(OC)cc2)cc1 | 121 to 122 °C
NS(=O)(=O)c1cc(S(N)(=O)=O)c(C(Cl)=C(Cl)Cl)cc1NCc1ccco1 | 155 °C
N=C(NN=Cc1ccc(OC(F)C(F)(F)F)cc1)NN=Cc1ccc(OC(F)C(F)(F)F)cc1 (centres undefined) | 125 to 130 °C
CC1(C)C(=O)Oc2ccc3cc(C#N)c(C(n4cncn4)n4cncn4)cc3c21 | 240 to 242 °C
CCOC(=O)c1cn2c3c(cc(CN4CCOCC4)cc3c1=O)OCC2 | 216 to 218 °C
Cn1ncnc1COc1nn2c(-c3ccccc3)nnc2cc1-c1ccco1 | 263 to 265 °C
CN(CCCCc1ccc(NC(=O)c2cccc3c(=O)c4ccccc4[nH]c23)cc1)Cc1ccc(F)cc1 | 151 °C
CNc1nc(-c2cccc(N)c2)cs1 | 118 to 121 °C
Cc1ccc(CSc2nc3cc4c(cc3[nH]2)C(C)(C)CCC4(C)C)nc1 | 187 to 188 °C
O=C(O)C(Cl)=Cc1cc(-n2c(=O)cc(C(F)(F)F)[nH]c2=O)ccc1Cl | > 250 °C

Structure (SMILES) | melting point
O=C(CC1CCCC1)NC[C@H]1CN(c2ccc3c(c2)CCCc2cnoc2-3)C(=O)O1 | 193 to 195 °C
Fc1ccc2c(c1)OCc1c(-c3noc(C4CC4)n3)ncn1-2 | 182 to 184 °C
CC(C)(Cl)CC(N)C(=O)NC(C(=O)Nc1ccccc1)C(=O)c1ccccc1 (centres undefined) | 145 to 147 °C
CC(=O)Nc1ccc(-c2cc(-c3c(-c4cccc(C)n4)nc4ccccn34)ccn2)cc1 | 257 °C
CC(=O)Oc1ccc(-n2c(-c3ccccc3)cc3ccccc32)cc1C(=O)O | 178 to 180 °C
CN(C)C(=O)c1ccccc1-c1ccc(C(=O)N2Cc3ccc(C(=O)NCc4cccnc4)n3Cc3ccccc32)cc1 | 206 to 207 °C
c1ccc2c(c1)cnn2N1CCNCC1 | 153 °C
COc1cc2c(cc1C(F)(F)F)N(C(=O)Nc1csc(-c3cnccn3)n1)CC2 | > 240 °C
CC(C)(Sc1cccc(OCc2ccc(-c3ccc([N+](=O)[O-])cc3)o2)c1)C(=O)O | 137 to 138 °C
Cc1cccc(C(=O)c2[nH]c3cc(Cl)ccc3c2NC(=O)N(C)C)c1 | 198 to 200 °C
COc1ccc2c(=O)c(-c3ccc(C)cc3)coc2c1OC | 135 °C
CNc1cc(-c2sc(N)nc2-c2cccc(C)n2)ccc1[N+](=O)[O-] | 100 to 102 °C
CN(CCc1ccccc1)S(=O)(=O)CC(=O)NO | 149 to 151 °C
COc1ccc2c(c1)CCN(Cc1c[nH]c3ncccc13)C2 | 144 to 146 °C
O=C(NC1CCCCC1)C(Br)c1ccccc1 (centres undefined) | 126 to 127 °C
CC(C)(C)NCC(O)c1cc(Cl)c(NC(=O)c2ccccc2)c(Cl)c1 (centres undefined) | 177 to 182 °C
Cc1c(NCC(C)(C)CNCC(O)COc2ccccc2)n(C)c(=O)n(C)c1=O (centres undefined) | 111 to 112 °C
CC(=O)NCCC1CCc2ccc3nc(C(F)(F)F)oc3c21 (centres undefined) | 114 to 116 °C
O=c1cc(Cl)c2nc3ccc(F)cc3sc-2c1Cl | 245 to 247 °C
COC(=O)c1ccc(C#Cc2cncc(C3CCCN3C)c2)cc1 (centres undefined) | 97 to 98 °C
FC(F)C(F)(F)Sc1nc(-c2ccccc2)c(-c2ccccc2)n1C1CCCO1 (centres undefined) | 145 to 146 °C
O=C1CCC(CO)N1OCc1ccccc1 (centres undefined) | 121 to 123 °C
O=S1(=O)NCCc2ccc(Oc3ccccc3)cc21 | 129 to 132 °C
Oc1ccc(Oc2ccc(O)c(Br)c2)cc1Br | 106 °C
